Target: T1, human V1a receptor (Homo sapiens, UniProt P37288)
T1 construct: expressed in transfected cells; host or cells: HEK293 cells, transiently transfected; cell membranes
Assay: human V1a receptor binding studies (3H-Vasopressin, SPA beads)
Conditions: membranes of HEK293 cells transiently transfected with human V1a receptor, Ki by Cheng-Prussoff from IC50, read-out: pKi hV1a (converted)
Description: The human V1a receptor was cloned by RT-PCR from total human liver RNA. The coding sequence was subcloned in an expression vector after sequencing to confirm the identity of the amplified sequence. […] Cell membranes were prepared from HEK293 cells transiently transfected with the expression vector and grown in 20 liter fermenters with the following protocol.
50 g of cells are re-suspended in 30 ml freshly prepared ice cold Lysis buffer (50 mM HEPES, 1 mM EDTA, 10 mM MgCl2 adjusted to pH=7.4+complete cocktail of protease inhibitor (Roche Diagnostics)). Homogenized with Polytron for 1 min and sonicated on ice for 2×2 minutes at 80% intensity (Vibracell sonicator). The preparation is centrifuged 20 min at 500 g at 4° C., the pellet is discarded and the supernatant centrifuged 1 hour at 43′000 g at 4° C. (19′000 rpm). The pellet is re-suspended in 12.5 ml Lysis buffer+12.5 ml Sucrose 20% and homogenized using a Polytron for 1-2 min. The protein concentration is determined by the Bradford method and aliquots are stored at −80° C. until use. For binding studies 60 mg Yttrium silicate SPA beads (Amersham) are mixed with an aliquot of membrane in binding buffer (50 mM Tris, 120 mM NaCl, 5 mM KCl, 2 mM CaCl2, 10 mM MgCl2) for 15 minutes with mixing. 50 μl of bead/membrane mixture is then added to each well of a 96 well plate, followed by 50 μl of 4 nM 3H-Vasopressin (American Radiolabeled Chemicals). For total binding measurement 100 μl of binding buffer are added to the respective wells, for non-specific binding 100 μl of […] cold vasopressin and for compound testing 100 μl of a serial dilution of each compound in 2% DMSO. The plate is incubated 1 h at room temperature, centrifuged 1 min at 1000 g and counted on a Packard Top-Count. Non-specific binding counts are subtracted from each well and data is normalized to the maximum specific binding set at 100%. To calculate an IC 50 the curve is fitted using a non-linear regression model (XLfit) and the Ki is calculated using the Cheng-Prussoff equation.

T1 sequence (P37288 whole entry): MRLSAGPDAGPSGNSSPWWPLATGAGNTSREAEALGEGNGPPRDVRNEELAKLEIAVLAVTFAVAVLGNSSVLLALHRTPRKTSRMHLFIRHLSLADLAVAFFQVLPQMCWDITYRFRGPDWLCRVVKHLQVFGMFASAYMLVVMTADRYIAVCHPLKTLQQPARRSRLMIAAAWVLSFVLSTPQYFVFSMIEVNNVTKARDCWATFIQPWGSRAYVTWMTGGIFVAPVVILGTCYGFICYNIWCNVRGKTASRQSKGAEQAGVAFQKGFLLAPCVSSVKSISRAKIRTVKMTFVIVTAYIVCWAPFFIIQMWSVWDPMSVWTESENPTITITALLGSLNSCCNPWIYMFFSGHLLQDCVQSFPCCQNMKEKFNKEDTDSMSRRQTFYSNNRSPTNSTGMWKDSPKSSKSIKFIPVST

Row | Ki | Compound
1 | 158 nM | O=C1OC2(CCN(C3=NC(=O)C(C(O)c4ccc(Cl)cc4)O3)CC2)c2ccccc21 (single isomer, unassigned) [Example 53, 1′-{-5-[(4-Chlorophenyl)(hydroxy)methyl]-4-oxo-4,5-dihydro-1,3-oxazol-2-yl}-3H-spiro[2-benzofuran-1,4′-piperidin]-3-one diastereomer b, enantiomer B]
2 | 5.01 nM | CCCCC1OC(N2CCC3(CC2)OCc2ccccc23)=NC1=O (single isomer, unassigned; (+)) [Example 4, (+)-5-Butyl-2-(1′H,3H-spiro[2-benzofuran-1,4′-piperidin]-1′-yl)-1,3-oxazol-4(5H)-one]
3 | 25.1 nM | CCCCC1(C)OC(N2CCC3(CC2)OCc2ccccc23)=NC1=O (single isomer, unassigned; (+)) [Example 67, (+)-5-Butyl-5-methyl-2-(1′H,3H-spiro[2-benzofuran-1,4′-piperidin]-1′-yl)-1,3-oxazol-4(5H)-one]
4 | 7.94 nM | CC1(Cc2ccccc2)OC(N2CCC3(CC2)OCc2ccccc23)=NC1=O (single isomer, unassigned; (+)) [Example 70, (+)-5-Benzyl-5-methyl-2-(1′H,3H-spiro[2-benzofuran-1,4′-piperidin]-1′-yl)-1,3-oxazol-4(5H)-one]
5 | 2.51 nM | CC1(CC2CCCC2)OC(N2CCC3(CC2)OCc2ccccc23)=NC1=O (single isomer, unassigned; (+)) [Example 77, (+)-5-(Cyclopentylmethyl)-5-methyl-2-(1′H,3H-spiro[2-benzofuran-1,4′-piperidin]-1′-yl)-1,3-oxazol-4(5H)-one]
6 | 501 nM | CC1(Cc2ccc(Cl)nc2)OC(N2CCC3(CC2)OCc2ccccc23)=NC1=O (single isomer, unassigned; (+)) [Example 84, (+)-5-[(6-Chloropyridin-3-yl)methyl]-5-methyl-2-(1′H,3H-spiro[2-benzofuran-1,4′-piperidin]-1′-yl)-1,3-oxazol-4(5H)-one]
7 | 1.26 nM | CC1(Cc2ccc(Cl)s2)OC(N2CCC3(CC2)OCc2ccccc23)=NC1=O (single isomer, unassigned; (+)) [Example 86, (+)-5-[(5-Chlorothiophen-2-yl)methyl]-5-methyl-2-(1′H,3H-spiro[2-benzofuran-1,4′-piperidin]-1′-yl)-1,3-oxazol-4(5H)-one]
8 | 251 nM | CCOCC1(C)OC(N2CCC3(CC2)OCc2ccccc23)=NC1=O (single isomer, unassigned; (+)) [Example 96, (+)-5-(Ethoxymethyl)-5-methyl-2-(1′H,3H-spiro[2-benzofuran-1,4′-piperidin]-1′-yl)-1,3-oxazol-4(5H)-one]
9 | 50.1 nM | CCCCC1OC(N2CCC3(CC2)OCc2ccccc23)=NC1=O (single isomer, unassigned; (-)) [Example 3, (−)-5-Butyl-2-(1′H,3H-spiro[2-benzofuran-1,4′-piperidin]-1′-yl)-1,3-oxazol-4(5H)-one]
10 | 200 nM | CCCCC1(C)OC(N2CCC3(CC2)OCc2ccccc23)=NC1=O (single isomer, unassigned; (-)) [Example 68, (−)-5-Butyl-5-methyl-2-(1′H,3H-spiro[2-benzofuran-1,4′-piperidin]-1′-yl)-1,3-oxazol-4(5H)-one]
11 | 79.4 nM | CC1(Cc2ccccc2)OC(N2CCC3(CC2)OCc2ccccc23)=NC1=O (single isomer, unassigned; (-)) [Example 71, (−)-5-Benzyl-5-methyl-2-(1′H,3H-spiro[2-benzofuran-1,4′-piperidin]-1′-yl)-1,3-oxazol-4(5H)-one]
12 | 100 nM | CC1(CC2CCCC2)OC(N2CCC3(CC2)OCc2ccccc23)=NC1=O (single isomer, unassigned; (-)) [Example 78, (−)-5-(Cyclopentylmethyl)-5-methyl-2-(1′H,3H-spiro[2-benzofuran-1,4′-piperidin]-1′-yl)-1,3-oxazol-4(5H)-one]
13 | 39.8 nM | CC1(Cc2ccc(Cl)nc2)OC(N2CCC3(CC2)OCc2ccccc23)=NC1=O (single isomer, unassigned; (-)) [Example 83, (−)-5-[(6-Chloropyridin-3-yl)methyl]-5-methyl-2-(1′H,3H-spiro[2-benzofuran-1,4′-piperidin]-1′-yl)-1,3-oxazol-4(5H)-one]
14 | 200 nM | CC1(Cc2ccc(Cl)s2)OC(N2CCC3(CC2)OCc2ccccc23)=NC1=O (single isomer, unassigned; (-)) [Example 87, (−)-5-[(5-Chlorothiophen-2-yl)methyl]-5-methyl-2-(1′H,3H-spiro[2-benzofuran-1,4′-piperidin]-1′-yl)-1,3-oxazol-4(5H)-one]
15 | 1580 nM | CCOCC1(C)OC(N2CCC3(CC2)OCc2ccccc23)=NC1=O (single isomer, unassigned; (-)) [Example 97, (−)-5-(Ethoxymethyl)-5-methyl-2-(1′H,3H-spiro[2-benzofuran-1,4′-piperidin]-1′-yl)-1,3-oxazol-4(5H)-one]
16 | 3.16 nM | O=C1N=C(N2CCC3(CC2)OCc2ccccc23)OC1C(O)c1ccc(Cl)cc1 (single isomer, unassigned; diastereomer a) [Example 42, (−)-5-[(4-Chlorophenyl)(hydroxy)methyl]-2-(1′H,3H-spiro[2-benzofuran-1,4′-piperidin]-1′-yl)-1,3-oxazol-4(5H)-one diastereomer a]
17 | 15.8 nM | O=C1N=C(N2CCC3(CC2)OCc2ccccc23)OC1C(O)c1ccc(Cl)cc1 (single isomer, unassigned; diastereomer a) [Example 43, (+)-5-[(4-Chlorophenyl)(hydroxy)methyl]-2-(1′H,3H-spiro[2-benzofuran-1,4′-piperidin]-1′-yl)-1,3-oxazol-4(5H)-one diastereomer a]
18 | 251 nM | CC1(CC2CCOC2)OC(N2CCC3(CC2)OCc2ccccc23)=NC1=O (single isomer, unassigned; diastereomer a) [Example 99, 5-Methyl-2-(1′H,3H-spiro[2-benzofuran-1,4′-piperidin]-1′-yl)-5-(tetrahydrofuran-3-ylmethyl)-1,3-oxazol-4(5H)-one diastereomer a]
19 | 20 nM | CC1(CC2CCCOC2)OC(N2CCC3(CC2)OCc2ccccc23)=NC1=O (single isomer, unassigned; diastereomer a) [Example 102, (+)-5-Methyl-2-(1′H,3H-spiro[2-benzofuran-1,4′-piperidin]-1′-yl)-5-(tetrahydro-2H-pyran-3-ylmethyl)-1,3-oxazol-4(5H)-one diastereomer a]
20 | 10 nM | CC1(CC2CCCOC2)OC(N2CCC3(CC2)OCc2ccccc23)=NC1=O (single isomer, unassigned; diastereomer a) [Example 103, (−)-5-Methyl-2-(1′H,3H-spiro[2-benzofuran-1,4′-piperidin]-1′-yl)-5-(tetrahydro-2H-pyran-3-ylmethyl)-1,3-oxazol-4(5H)-one diastereomer a]
21 | 15.8 nM | CC(c1ccccc1)C1(C)OC(N2CCC3(CC2)OCc2ccccc23)=NC1=O (single isomer, unassigned; diastereomer a) [Example 106, 5-Methyl-5-(1-phenylethyl)-2-(1′H,3H-spiro[2-benzofuran-1,4′-piperidin]-1′-yl)-1,3-oxazol-4(5H)-one diastereomer a]
22 | 12.6 nM | CC(c1ccccc1)C1(C)OC(N2CCC3(CC2)OCc2ccccc23)=NC1=O (single isomer, unassigned; diastereomer a) [Example 108, (+)-5-Methyl-5-(1-phenylethyl)-2-(1′H,3H-spiro[2-benzofuran-1,4′-piperidin]-1′-yl)-1,3-oxazol-4(5H)-one diastereomer a]
23 | 50.1 nM | CC(c1ccccc1)C1(C)OC(N2CCC3(CC2)OCc2ccccc23)=NC1=O (single isomer, unassigned; diastereomer a) [Example 109, (−)-5-Methyl-5-(1-phenylethyl)-2-(1′H,3H-spiro[2-benzofuran-1,4′-piperidin]-1′-yl)-1,3-oxazol-4(5H)-one diastereomer a]
24 | 200 nM | CC(=O)O[C@H]1CC2(C[C@H]1OC(C)=O)OC(N1CCC3(CC1)OCc1ccccc13)=NC2=O (single isomer, unassigned; diastereomer a) [Example 120, 4-Oxo-2-(1′H,3H-spiro[2-benzofuran-1,4′-piperidin]-1′-yl)-1-oxa-3-azaspiro[4.4]non-2-ene-7,8-diyl diacetate diastereomer a]
25 | 200 nM | CO[C@H]1CC2(C[C@H]1OC)OC(N1CCC3(CC1)OCc1ccccc13)=NC2=O (single isomer, unassigned; diastereomer a) [Example 122, 7,8-Dimethoxy-2-(1′H,3H-spiro[2-benzofuran-1,4′-piperidin]-1′-yl)-1-oxa-3-azaspiro[4.4]non-2-en-4-one diastereomer a]
